Data reported in ChEMBL document CHEMBL5113521, “Discovery of a Novel Oral Proteasome Inhibitor to Block NLRP3 Inflammasome Activation with Anti-inflammation Activity” (J Med Chem, 2022).
The source made the active and inactive calls. The rule behind the calls is not given here.

Tests used:
[1] = target: NACHT, LRR and PYD domains-containing protein 3 (Mus musculus) (UniProt Q8R4B8); test: Inhibition of NLRP3 inflammasome activation in LPS-primed mouse J774.A1 cells assessed as inhibition of caspase-1 p20 subunit release in supernatant preincubated for 1 hr followed by nigericin stimulation measured after 1 hr by Western blot analysis; assay type: cell-based; conditions: dose 7.5-60 nM, time 2.0 hrs, DDE = dose-dependent effect
Sequence of NACHT, LRR and PYD domains-containing protein 3 (Mus musculus) (Q8R4B8 whole entry, the tested form may be a part): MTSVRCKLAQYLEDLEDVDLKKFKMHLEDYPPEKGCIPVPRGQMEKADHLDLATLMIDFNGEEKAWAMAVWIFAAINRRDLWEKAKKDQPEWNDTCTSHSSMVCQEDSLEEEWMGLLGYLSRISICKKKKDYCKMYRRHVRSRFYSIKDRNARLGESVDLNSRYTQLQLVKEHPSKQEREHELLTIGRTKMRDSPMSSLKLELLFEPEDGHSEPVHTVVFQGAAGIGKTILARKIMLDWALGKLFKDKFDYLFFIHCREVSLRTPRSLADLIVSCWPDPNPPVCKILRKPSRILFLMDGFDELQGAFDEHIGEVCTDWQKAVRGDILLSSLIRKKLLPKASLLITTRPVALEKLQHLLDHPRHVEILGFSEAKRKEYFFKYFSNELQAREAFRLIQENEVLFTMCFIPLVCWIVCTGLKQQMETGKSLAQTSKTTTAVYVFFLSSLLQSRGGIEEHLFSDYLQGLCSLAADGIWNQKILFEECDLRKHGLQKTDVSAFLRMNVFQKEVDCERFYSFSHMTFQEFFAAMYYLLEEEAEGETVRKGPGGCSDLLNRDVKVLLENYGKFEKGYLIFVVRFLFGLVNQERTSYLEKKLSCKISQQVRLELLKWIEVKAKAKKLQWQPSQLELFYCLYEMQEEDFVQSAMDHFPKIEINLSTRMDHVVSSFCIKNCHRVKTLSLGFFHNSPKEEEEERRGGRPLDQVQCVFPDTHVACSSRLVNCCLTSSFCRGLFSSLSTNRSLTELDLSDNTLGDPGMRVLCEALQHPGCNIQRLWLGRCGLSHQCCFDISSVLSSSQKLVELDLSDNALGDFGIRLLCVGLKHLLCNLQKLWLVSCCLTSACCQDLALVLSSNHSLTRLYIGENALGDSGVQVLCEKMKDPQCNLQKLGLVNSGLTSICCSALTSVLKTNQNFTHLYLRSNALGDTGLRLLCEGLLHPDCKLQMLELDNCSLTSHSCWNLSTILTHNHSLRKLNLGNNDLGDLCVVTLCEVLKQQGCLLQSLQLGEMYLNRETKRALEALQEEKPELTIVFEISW

[2] = target: NACHT, LRR and PYD domains-containing protein 3 (Mus musculus) (UniProt Q8R4B8); test: Inhibition of NLRP3 inflammasome activation in LPS-primed mouse BMDM cells assessed as reduction in IL-1 beta release preincubated for 1 hr followed by nigericin stimulation and measured after 1 hr by ELISA; assay type: cell-based; conditions: dose 7.5-60 nM, time 2.0 hrs, DDE = dose-dependent effect
[3] = target: T1, Proteasome Macropain subunit MB1 (Homo sapiens, UniProt P28074); test: Inhibition of 20S proteasome beta5 subunit (unknown origin) using Suc-LLVY-AMC as flurogenic substrate measured after 1 hr by fluorescence based analysis; conditions: read-out: IC50
T1 sequence (P28074 whole entry): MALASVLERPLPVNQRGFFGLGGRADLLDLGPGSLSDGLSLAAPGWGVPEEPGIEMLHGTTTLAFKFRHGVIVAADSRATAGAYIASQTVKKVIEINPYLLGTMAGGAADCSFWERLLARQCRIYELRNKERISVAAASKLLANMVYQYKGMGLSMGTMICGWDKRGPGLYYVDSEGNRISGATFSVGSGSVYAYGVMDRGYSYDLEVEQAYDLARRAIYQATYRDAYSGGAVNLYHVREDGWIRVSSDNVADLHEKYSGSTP

[4] = Cmax in Sprague-Dawley rat at 0.5 mg/kg, iv measured upto 24 hrs by liquid chromatography tandem mass spectrometry; assay type: ADME, organism-based; design: time < 24 hrs, dose 0.5 mg/kg, route iv; conditions: in vivo
[5] = target: T2, Interferon-inducible protein AIM2 (Mus musculus) (UniProt Q91VJ1); test: Inhibition of AIM2 inflammasome activation in LPS-primed mouse BMDM cells assessed as reduction in IL-1beta secretion at 7.5 to 60 nM preincubated for 1 hr followed by FLA-ST Ultrapure stimulation by ELISA; assay type: cell-based; conditions: dose 7.5-60 nM
T2 sequence (whole entry): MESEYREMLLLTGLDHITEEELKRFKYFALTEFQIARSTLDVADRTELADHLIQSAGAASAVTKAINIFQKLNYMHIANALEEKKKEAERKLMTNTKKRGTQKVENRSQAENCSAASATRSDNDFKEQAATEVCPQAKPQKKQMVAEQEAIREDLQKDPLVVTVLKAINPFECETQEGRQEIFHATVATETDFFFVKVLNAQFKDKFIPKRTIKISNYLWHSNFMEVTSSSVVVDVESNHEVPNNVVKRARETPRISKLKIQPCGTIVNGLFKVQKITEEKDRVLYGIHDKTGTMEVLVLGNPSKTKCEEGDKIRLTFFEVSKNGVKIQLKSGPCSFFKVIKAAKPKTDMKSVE

[6] = Cmax in Sprague-Dawley rat at 1 mg/kg, po measured upto 24 hrs by liquid chromatography tandem mass spectrometry; assay type: ADME, organism-based; design: dose 1 mg/kg, time < 24 hrs, route po; conditions: in vivo
[7] = tested on: Mus musculus; test: Protection against DSS-induced C57BL/6 mouse ulcerative colitis model assessed as reduction in pro-IL-1 beta level in colon at 0.125 to 0.5 mg/kg, po by Western blot analysis; assay type: functional, organism-based; conditions: dose 0.125-0.5 mg/kg
[8] = Half life in Sprague-Dawley rat at 1 mg/kg, po measured upto 24 hrs by liquid chromatography tandem mass spectrometry; assay type: ADME, organism-based; conditions: in vivo
[9] = target: NLR family CARD domain-containing protein 4 (Mus musculus) (UniProt Q3UP24); test: Inhibition of NLRC4 inflammasome activation in LPS-primed mouse BMDM cells assessed as reduction in IL-1beta secretion at 7.5 to 60 nM preincubated for 1 hr followed by poly (dA/dT) stimulation by ELISA; assay type: cell-based; conditions: dose 7.5-60 nM
Sequence of NLR family CARD domain-containing protein 4 (Mus musculus) (Q3UP24 whole entry, the tested form may be a part): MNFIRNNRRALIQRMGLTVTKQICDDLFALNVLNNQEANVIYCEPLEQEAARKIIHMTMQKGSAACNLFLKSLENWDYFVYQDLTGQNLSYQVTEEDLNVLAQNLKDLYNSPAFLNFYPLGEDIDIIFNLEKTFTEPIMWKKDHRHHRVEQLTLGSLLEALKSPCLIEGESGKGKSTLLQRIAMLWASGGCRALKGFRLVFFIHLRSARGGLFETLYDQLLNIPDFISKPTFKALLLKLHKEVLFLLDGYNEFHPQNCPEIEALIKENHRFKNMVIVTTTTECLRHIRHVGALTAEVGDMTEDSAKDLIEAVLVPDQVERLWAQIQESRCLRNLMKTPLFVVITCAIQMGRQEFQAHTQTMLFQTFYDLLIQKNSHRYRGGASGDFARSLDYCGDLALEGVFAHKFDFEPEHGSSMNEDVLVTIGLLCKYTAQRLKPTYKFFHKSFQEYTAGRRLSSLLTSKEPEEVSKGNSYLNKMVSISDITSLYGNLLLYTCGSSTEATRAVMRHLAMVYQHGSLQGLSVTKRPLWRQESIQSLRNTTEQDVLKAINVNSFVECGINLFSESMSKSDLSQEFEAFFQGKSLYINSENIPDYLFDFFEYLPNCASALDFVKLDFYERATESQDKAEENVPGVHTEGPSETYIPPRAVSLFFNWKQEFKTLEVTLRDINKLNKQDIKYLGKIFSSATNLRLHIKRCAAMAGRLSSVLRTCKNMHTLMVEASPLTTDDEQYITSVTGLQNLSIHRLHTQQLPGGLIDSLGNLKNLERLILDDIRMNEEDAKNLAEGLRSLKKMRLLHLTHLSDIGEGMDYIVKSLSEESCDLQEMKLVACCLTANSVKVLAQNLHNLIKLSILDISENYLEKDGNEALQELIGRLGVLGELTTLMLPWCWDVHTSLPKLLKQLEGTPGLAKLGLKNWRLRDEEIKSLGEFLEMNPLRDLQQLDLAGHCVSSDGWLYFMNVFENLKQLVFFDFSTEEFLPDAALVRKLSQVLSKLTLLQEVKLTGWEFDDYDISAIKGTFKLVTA

[10] = target: NACHT, LRR and PYD domains-containing protein 3 (Mus musculus) (UniProt Q8R4B8); test: Inhibition of NLRP3 inflammasome activation in LPS/nigericin stimulated mouse BMDM cells assessed as […] in ASC speck formation at 15 to 60 nM preincubated for 1 hr followed by LPS/nigericin stimulation by DAPI staining based immunofluorescence assay; assay type: cell-based; conditions: dose 15-60 nM
[11] = tested on: Mus musculus; test: Anti-colitis activity against DSS-induced ulcerative colitis C57BL/6J mouse assessed as reduction in colon length decrease at 0.125 to 0.5 mg/kg, po administered every 72 hrs for 10 days; assay type: functional, organism-based; conditions: dose 0.125-0.5 mg/kg, time 10.0 day
[12] = target: NACHT, LRR and PYD domains-containing protein 3 (Mus musculus) (UniProt Q8R4B8); test: Inhibition of NLRP3 inflammasome activation in LPS-stimulated mouse J774.A1 cells assessed as blockage of NLRP3-ASC protein-protein interaction at 15 to 60 nM preincubated for 1 hr followed by nigericin stimulation by co-immunoprecipitation assay; assay type: cell-based; conditions: dose 15-60 nM
[13] = tested on: J774.A1; test: Inhibition of NF-kappaB in LPS treated mouse J774.A1 cells assessed as reduction in pro-IL-1beta expression at 7.5 to 60 nM incubated for 1 hr followed by LPS stimulation measured after 5 hrs by Western blot analysis; assay type: cell-based; conditions: dose 7.5-60 nM, time 6.0 hrs
[14] = Tmax in Sprague-Dawley rat at 1 mg/kg, po measured upto 24 hrs by liquid chromatography tandem mass spectrometry; assay type: ADME, organism-based; conditions: in vivo
[15] = Cytotoxicity against HEK293 cells incubated for 24 hrs; assay type: toxicity, cell-based; conditions: human
[16] = tested on: J774.A1; test: Inhibition of NF-kappaB in LPS treated mouse J774.A1 cells assessed as reduction in phosphorylated p65 level at 60 nM incubated for 1 hr followed by LPS stimulation measured after 5 hrs by Western blot analysis; assay type: cell-based; conditions: time 6.0 hrs
[17] = tested on: Mus musculus; test: Protection against DSS-induced acute colitis in C57BL/6 mouse model assessed as improvement in loss of crypt architecture at 0.125 to 0.5 mg/kg, po administered for 10 days by Hematoxylin and eosin staining based analysis; assay type: functional, organism-based; conditions: dose 0.125-0.5 mg/kg, time 10.0 day
[18] = tested on: J774.A1; test: Inhibition of NF-kappaB in LPS treated mouse J774.A1 cells assessed as reduction in p65 level at 60 nM incubated for 1 hr followed by LPS stimulation measured after 5 hrs by Western blot analysis; assay type: cell-based; conditions: time 6.0 hrs
[19] = target: NACHT, LRR and PYD domains-containing protein 3 (Mus musculus) (UniProt Q8R4B8); test: Inhibition of NLRP3 inflammasome activation in LPS-primed mouse J774.A1 cells assessed as inhibition of IL-1 beta release in supernatant preincubated for 1 hr followed by nigericin stimulation measured after 1 hr by Western blot analysis; assay type: cell-based; conditions: dose 7.5-60 nM, time 2.0 hrs, DDE = dose-dependent effect
[20] = Oral bioavailability in Sprague-Dawley rat at 1 mg/kg measured upto 24 hrs by liquid chromatography tandem mass spectrometry; assay type: ADME, organism-based; conditions: in vivo

## CC(C)C[C@H](NC(=O)[C@H](Cc1ccccc1)NC(=O)c1c(F)cccc1F)B(O)O
[1]
  inhibition: Dde
[2]
  inhibition: Dde
[3]
  IC50: 3.7 nM
[4]
  Cmax: 377 ng/mL
[5]
  inhibition: Active
[6]
  Cmax: 208 ng/mL
[7]
  Activity: Active
[8]
  t1/2: 8.36 h
[9]
  inhibition: Active
[10]
  inhibition: Active
[11]
  Activity: Active
[12]
  inhibition: Active
[13]
  inhibition: Active
[14]
  Tmax: 0.25 h
[15]
  IC50 at 24 h: < 79.4 nM
[16]
  inhibition: Active
[17]
  Activity: Active
[18]
  inhibition: Active
[19]
  inhibition: Dde
[20]
  bioavailability: 48.1%
